Source: patent US7473700B2, “1,2,4-triazole derivatives, processes for the preparation thereof, and pharmaceutical compositions containing the same” (CJ Corporation, priority 2002, dated 2009)

Experiments:
COX-1 = molecular target: T1, COX-1 (Homo sapiens, UniProt P23219); assay: Assay for the COX-1 inhibitory activity using U-937 (PGE2 inhibition); type: cell-based; conditions: 1 μM test compound; U-937 human lymphoma cells; PGE2 after arachidonic acid; read-out: Cyclooxygenase (COX) Inhibition (%) COX-1 (1 μM)
T1 construct: host or cells: U-937 human lymphoma cells
Procedure: The collected cells were diluted with HBSS (×1, Hank's balanced salt solution) to a concentration of 1×10^6 cells/ml. 1 ml of the dilute cell solution was placed into each well of 12-well plates. 5 μl of 1 μM solution of a test compound in DMSO and 5 μl of DMSO as a control were added to the wells. The wells were incubated in CO2 incubator at 37° C. for 15 minutes. Separately, 10 mM stock solution of arachidonic acid in ethanol was diluted ten times in ethanol to prepare 1 mM solution of arachidonic acid. Arachidonic acid acts as a substrate. 10 μl of the 1 mM solution of arachidonic acid was added to each well and incubated at CO2 incubator at 37° C. for 30 minutes. The cell solution of each well was placed in a centrifuge test tube and centrifuged at 10,000 rpm at 4° C. for 5 minutes. The concentration of PGE2 in the collected cells and the supernatant was quantified by means of a monoclonal kit (Cayman Chemicals). The percentages of PGE2 inhibition in a group of the test compound-treated cells in relation to a group of the DMSO-treated cells were calculated. Based on the calculated values, the COX-1 inhibitory activities were evaluated.
(§1) The percentages of the COX inhibition were calculated according to the following equation: % Inhibition=(concentration of PGE2 in test compound-untreated sample−concentration of PGE2 in test compound-treated sample)/(concentration of PGE2 in test compound-untreated sample)×100

COX-2 = molecular target: T2, COX-2 (Mus musculus, UniProt Q05769); assay: Assay for the COX-2 inhibitory activity using RAW 264.7 cell line (PGE2 inhibition); type: cell-based; conditions: RAW264.7, 10 nM test compound, RAW 264.7 cells, interferon γ and LPS, 18 hours, read-out: Cyclooxygenase (COX) Inhibition (%) COX-2 (10 nM)
T2 construct: host or cells: RAW 264.7 cells, aspirin-pretreated, then induced with interferon gamma and LPS
T2 sequence (Q05769 18-604): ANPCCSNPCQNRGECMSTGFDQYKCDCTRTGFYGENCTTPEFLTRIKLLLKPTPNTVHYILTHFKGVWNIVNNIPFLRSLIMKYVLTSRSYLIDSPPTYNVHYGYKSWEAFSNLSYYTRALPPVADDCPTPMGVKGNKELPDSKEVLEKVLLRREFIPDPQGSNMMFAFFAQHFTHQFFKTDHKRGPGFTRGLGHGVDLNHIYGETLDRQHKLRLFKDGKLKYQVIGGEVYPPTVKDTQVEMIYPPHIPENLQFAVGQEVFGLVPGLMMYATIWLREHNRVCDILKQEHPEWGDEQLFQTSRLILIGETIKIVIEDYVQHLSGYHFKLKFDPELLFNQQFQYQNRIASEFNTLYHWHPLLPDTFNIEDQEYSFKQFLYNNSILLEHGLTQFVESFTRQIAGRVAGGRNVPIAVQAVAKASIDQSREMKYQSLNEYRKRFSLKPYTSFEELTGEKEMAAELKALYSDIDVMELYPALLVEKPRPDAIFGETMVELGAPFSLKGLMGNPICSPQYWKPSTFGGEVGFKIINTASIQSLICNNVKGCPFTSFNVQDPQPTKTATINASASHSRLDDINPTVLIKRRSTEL
Procedure: Each well was treated with 250 μM of aspirin and incubated at 37° C. for 2 hours. After the culture media were replaced with new culture media, the new culture media were treated with a test compound (10 nM) and incubated for 30 minutes. Then, each well was treated with interferon γ (100 units/ml) and lipopolysaccharide (LPS, 100 ng/ml) and incubated for 18 hours. The culture media were transferred to other test tubes. The concentration of PGE2 was quantified by means of the EIA kit (Cayman Chemicals).
as §1

T1 sequence (P23219 24-599): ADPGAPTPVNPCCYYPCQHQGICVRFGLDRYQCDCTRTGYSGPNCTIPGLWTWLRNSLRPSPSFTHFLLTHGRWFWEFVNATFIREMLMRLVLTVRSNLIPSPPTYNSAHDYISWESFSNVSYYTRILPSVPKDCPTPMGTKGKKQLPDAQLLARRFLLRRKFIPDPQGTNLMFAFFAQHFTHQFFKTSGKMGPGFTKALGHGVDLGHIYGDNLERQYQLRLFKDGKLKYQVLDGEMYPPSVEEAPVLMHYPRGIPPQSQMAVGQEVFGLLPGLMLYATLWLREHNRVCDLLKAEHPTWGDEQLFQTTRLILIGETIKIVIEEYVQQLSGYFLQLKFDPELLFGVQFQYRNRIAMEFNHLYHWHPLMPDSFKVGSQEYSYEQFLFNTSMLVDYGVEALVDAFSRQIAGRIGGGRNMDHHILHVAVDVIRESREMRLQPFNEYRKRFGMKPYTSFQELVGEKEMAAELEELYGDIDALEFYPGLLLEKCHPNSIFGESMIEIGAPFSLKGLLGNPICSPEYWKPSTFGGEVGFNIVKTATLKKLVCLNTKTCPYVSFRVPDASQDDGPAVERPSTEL

| Compound | inhibition at 1 µM (COX-1) [%] | inhibition at 0.01 µM (COX-2) [%] |
| --- | --- | --- |
| CC(C)Sc1nc(-c2ccccc2)n(-c2ccc(S(N)(=O)=O)cc2)n1 [Example 49, 4-(3-isopropylthio-5-phenyl-1,2,4-triazole-1-yl)-benzenesulfonamide] | 33.1 | 24.5 |
| CCSc1nc(-c2ccccc2)n(-c2ccc(S(N)(=O)=O)cc2)n1 [Example 34, 4-(3-ethylthio-5-phenyl-1,2,4-triazole-1-yl)-benzenesulfonamide] | 31.2 | 9.5 |
| CCOc1ccc(-c2nc(O)nn2-c2ccc(S(N)(=O)=O)cc2)cc1 [Example 17, 4-[3-hydroxy-5-(4-ethoxyphenyl)-1,2,4-triazole-1-yl]-benzenesulfonamide] | 48.8 | 10.5 |
| COc1nc(-c2ccccc2)n(-c2ccc(S(C)(=O)=O)cc2)n1 [Example 60, 1-(4-methanesulfonylphenyl)-3-methoxy-5-phenyl-1H-1,2,4-triazole] | 23.4 | 23.4 |
| NS(=O)(=O)c1ccc(-n2nc(OCc3ccccc3)nc2-c2ccccc2)cc1 [Example 51, 4-(3-benzyloxy-5-phenyl-1,2,4-triazole-1-yl)-benzenesulfonamide] | 21.4 | 23.4 |
| NS(=O)(=O)c1ccc(-n2nc(OC3CCCC3)nc2-c2ccc(F)cc2)cc1 [Example 38, 4-[3-cyclopentyloxy-5-(4-fluorophenyl)-1,2,4-triazole-1-yl]-benzenesulfonamide] | 17.4 | 33.1 |
| CCOc1nc(-c2ccc(OC)cc2)n(-c2ccc(S(C)(=O)=O)cc2)n1 [Example 61, 1-(4-methanesulfonylphenyl)-3-ethoxy-5-(4-methoxylphenyl)-1H-1,2,4-triazole] | 33.1 | 34.2 |
| COc1ccc(-c2nc(O)nn2-c2ccc(S(N)(=O)=O)cc2)cc1 [Example 16, 4-[3-hydroxy-5-(4-methoxyphenyl)-1,2,4-triazole-1-yl]-benzenesulfonamide] | 35.5 | 11.2 |
| C#CCOc1nc(-c2ccc(F)cc2)n(-c2ccc(S(N)(=O)=O)cc2)n1 [Example 44, 4-[3-prop-2-ynyloxy-5-(4-fluorophenyl)-1,2,4-triazole-1-yl]-benzenesulfonamide] | 27.2 | 14.5 |
| COc1ccc(-c2nc(O)nn2-c2ccc(S(N)(=O)=O)cc2)cc1F [Example 20, 4-[3-hydroxy-5-(3-fluoro-4-methoxyphenyl)-1,2,4-triazole-1-yl]-benzenesulfonamide] | 26.4 | 11 |
| COc1ccc(-c2nc(OC(C)C)nn2-c2ccc(S(N)(=O)=O)cc2)cc1 [Example 46, 4-[3-isopropoxy-5-(4-methoxyphenyl)-1,2,4-triazole-1-yl]-benzenesulfonamide] | 34.2 | 12.2 |
| CCOc1nc(-c2ccc(OC)c(F)c2)n(-c2ccc(S(N)(=O)=O)cc2)n1 [Example 33, 4-[3-ethoxy-5-(3-fluoro-4-methoxyphenyl)-1,2,4-triazole-1-yl]-benzenesulfonamide] | 23.7 | 10.5 |
| CS(=O)(=O)c1ccc(-n2nc(O)nc2-c2ccccc2)cc1 [Example 22, 1-(4-methanesulfonylphenyl)-5-phenyl-1H-1,2,4-triazole-3-ol] | 11.1 | 36.4 |
| CCOc1nc(-c2ccccc2)n(-c2ccc(S(N)(=O)=O)cc2)n1 [Example 31, 4-(3-ethoxy-5-phenyl-1,2,4-triazole-1-yl)-benzenesulfonamide] | 15.5 | 16.4 |
| CC(C)Oc1nc(-c2ccccc2)n(-c2ccc(S(C)(=O)=O)cc2)n1 [Example 64, 1-(4-methanesulfonylphenyl)-3-isopropoxy-5-phenyl-1H-1,2,4-triazole] | 23.4 | 33.1 |
| NS(=O)(=O)c1ccc(-n2nc(OC3CCCCC3)nc2-c2ccc(F)cc2)cc1 [Example 40, 4-[3-cyclohexyloxy-5-(4-fluorophenyl)-1,2,4-triazole-1-yl]-benzenesulfonamide] | 16.2 | 16.2 |
| COc1ccc(-c2nc(OC(C)C)nn2-c2ccc(S(C)(=O)=O)cc2)cc1 [Example 63, 1-(4-methanesulfonylphenyl)-3-isopropoxy-5-(4-methoxyphenyl)-1H-1,2,4-triazole] | 22.6 | 26.4 |
| C=CCOc1nc(-c2ccc(OC)cc2)n(-c2ccc(S(N)(=O)=O)cc2)n1 [Example 52, 4-[3-allyloxy-5-(4-methoxyphenyl)-1,2,4-triazole-1-yl]-benzenesulfonamide] | 34.3 | 33.1 |
| C=CCOc1nc(-c2ccc(F)cc2)n(-c2ccc(S(N)(=O)=O)cc2)n1 [Example 54, 4-[3-allyloxy-5-(4-fluorophenyl)-1,2,4-triazole-1-yl]-benzenesulfonamide] | 26.4 | 15.5 |
| COc1ccc(-c2nc(OC3CCCCC3)nn2-c2ccc(S(N)(=O)=O)cc2)cc1 [Example 39, 4-[3-cyclohexyloxy-5-(4-methoxyphenyl)-1,2,4-triazole-1-yl]-benzenesulfonamide] | 15.5 | 20.7 |
| COc1ccc(-c2nc(OC)nn2-c2ccc(S(N)(=O)=O)cc2)cc1 [Example 24, 4-[3-methoxy-5-(4-methoxyphenyl)-1,2,4-triazole-1-yl]-benzenesulfonamide] | 16.4 | 31.2 |
| CCOc1nc(-c2ccccc2)n(-c2ccc(S(C)(=O)=O)cc2)n1 [Example 62, 1-(4-methanesulfonylphenyl)-3-ethoxy-5-phenyl-1H-1,2,4-triazole] | 26 | 25.4 |
| CC(C)Oc1nc(-c2ccc(F)cc2)n(-c2ccc(S(N)(=O)=O)cc2)n1 [Example 48, 4-[3-isopropoxy-5-(4-fluorophenyl)-1,2,4-triazole-1-yl]-benzenesulfonamide] | 26.4 | 9.8 |
| COc1nc(-c2ccccc2)n(-c2ccc(S(N)(=O)=O)cc2)n1 [Example 25, 4-(3-methoxy-5-phenyl-1,2,4-triazole-1-yl)-benzenesulfonamide] | 23.2 | 27.8 |
| C#CCOc1nc(-c2ccc(OC)cc2)n(-c2ccc(S(N)(=O)=O)cc2)n1 [Example 43, 4-[3-prop-2-ynyloxy-5-(4-methoxyphenyl)-1,2,4-triazole-1-yl]-benzenesulfonamide] | 30.4 | 16.7 |
| COc1ccc(-c2nc(OC)nn2-c2ccc(S(C)(=O)=O)cc2)cc1 [Example 59, 1-(4-methanesulfonylphenyl)-3-methoxy-5-(4-methoxylphenyl)-1H-1,2,4-triazole] | 22.6 | 27.2 |
| COc1ccc(-c2nc(OCC#N)nn2-c2ccc(S(N)(=O)=O)cc2)cc1 [Example 41, 4-[3-cyanomethoxy-5-(4-methoxyphenyl)-1,2,4-triazole-1-yl]-benzenesulfonamide] | 27.7 | 15.5 |
| CC(C)Oc1nc(-c2ccccc2)n(-c2ccc(S(N)(=O)=O)cc2)n1 [Example 47, 4-(3-isopropoxy-5-phenyl-1,2,4-triazole-1-yl)-benzenesulfonamide] | 25.4 | 10.6 |
| COc1nc(-c2ccc(Br)cc2)n(-c2ccc(S(N)(=O)=O)cc2)n1 [Example 27, 4-[3-methoxy-5-(4-bromophenyl)-1,2,4-triazole-1-yl]-benzenesulfonamide] | 11.2 | 11.5 |
